Data: ChEMBL document CHEMBL3085646, “Sulfur-containing cytotoxic curvularin macrolides from Penicillium sumatrense MA-92, a fungus obtained from the rhizosphere of the mangrove Lumnitzera racemosa” (J Nat Prod, 2013)

How the values were obtained:
MCF7 = test: Cytotoxic activity against human MCF7 cells; assay type: functional, cell-based
[1] = Cytotoxic activity against human SGC7901 cells; assay type: functional, cell-based, SGC-7901
SW1990 = test: Cytotoxic activity against human SW1990 cells; assay type: functional, cell-based
DU-145 = test: Cytotoxic activity against human DU145 cells; assay type: functional, cell-based
NCI-H460 = test: Cytotoxic activity against human NCI-H460 cells; assay type: functional, cell-based
Huh-7 = test: Cytotoxic activity against human HuH7 cells; assay type: functional, cell-based
HeLa = test: Cytotoxic activity against human HeLa cells; assay type: functional, cell-based
[2] = Homo sapiens, MCF7, read-out: IC50
[3] = Homo sapiens, SGC-7901, read-out: IC50
[4] = Homo sapiens, SW1990, read-out: IC50
[5] = Homo sapiens, DU-145, read-out: IC50
[6] = Homo sapiens, NCI-H460, read-out: IC50
[7] = Homo sapiens, Huh-7, read-out: IC50
[8] = Homo sapiens, HeLa, read-out: IC50

| SMILES | IC50 (MCF7; [2]) [µM] | IC50 [1, 3] [µM] | IC50 (SW1990; [4]) [µM] | IC50 (DU-145; [5]) [µM] | IC50 (NCI-H460; [6]) [µM] | IC50 (Huh-7; [7]) [µM] | IC50 (HeLa; [8]) [µM] | further results |
| --- | --- | --- | --- | --- | --- | --- | --- | --- |
| CC(=O)OCCOC(=O)[C@@H](CS[C@H]1CCC[C@H](C)OC(=O)Cc2cc(O)cc(O)c2C(=O)C1)OC(C)=O | 4.7 | 6.8 | 11 | 7 | 4.6 | 5.5 | 8 | – |
| C[C@H]1CCC/C=C/C(=O)c2c(O)cc(O)cc2CC(=O)O1 [DEHYDROCURVULARIN] | 4 | 6 | 10 | 6 | 5 | 5 | 6 | – |
| O=c1[nH]cc(F)c(=O)[nH]1 [FLUOROURACIL] | – | – | – | 3.4 | – | – | – | – |
| C[C@H]1CCC[C@H](SC[C@@H](O)C(=O)O)CC(=O)c2c(O)cc(O)cc2CC(=O)O1 | 4.4 | 8.5 | 11 | 6 | 7 | 5.1 | 6 | – |
| COC(=O)[C@H](O)CS[C@H]1CCC[C@H](C)OC(=O)Cc2cc(O)cc(O)c2C(=O)C1 | 4.4 | 5.5 | 10 | 6 | 3.8 | 3.9 | 6 | – |
| CC(=O)O[C@H]1C(=O)[C@@]2(C)[C@H]([C@H](OC(=O)c3ccccc3)[C@]3(O)C[C@H](OC(=O)[C@H](O)[C@@H](NC(=O)c4ccccc4)c4ccccc4)C(C)=C1C3(C)C)[C@]1(OC(C)=O)CO[C@@H]1C[C@@H]2O [PACLITAXEL] | – | – | – | – | – | – | 12 | – |
| CC1CCCCCC(=O)c2c(O)cc(O)cc2CC(=O)O1 (centres undefined) [CURVULARIN] | – | – | – | – | – | – | – | IC50 (MCF7; mcf7): Not Active; IC50 ([1]; sgc-7901): Not Active; IC50 (SW1990; sw1990): Not Active; IC50 (DU-145; du-145): Not Active; IC50 (NCI-H460; nci-h460): Not Active; IC50 (Huh-7; huh-7): Not Active; IC50 (HeLa; hela): Not Active |
| Nc1ccn([C@@H]2O[C@H](CO)[C@@H](O)C2(F)F)c(=O)n1 [GEMCITABINE] | – | – | 1.6 | – | – | – | – | – |
| COc1cccc2c1C(=O)c1c(O)c3c(c(O)c1C2=O)C[C@@](O)(C(=O)CO)C[C@@H]3O[C@H]1C[C@H](N)[C@H](O)[C@H](C)O1 [DOXORUBICIN] | – | 0.011 | – | – | – | – | – | – |
